Test results published in ChEMBL document CHEMBL5506059, “Cyanomethylquinolones as a New Class of Potential Multitargeting Broad-Spectrum Antibacterial Agents” (J Med Chem, 2024).
Converted amounts (≈) assume the structure as drawn. The source made the active and inactive calls. The calls are words filed in the database; no cut-off is given here.

Experiments:
Staphylococcus aureus [1] = assay: Antibiofilm activity in methicillin resistant Staphylococcus aureus assessed as biofilm eradication measured after 24 hrs by crystal violet staining based analysis; type: functional, organism-based; settings: dose 1-2 µg/ml
Staphylococcus aureus [2] = assay: Antibacterial activity against ciprofloxacin-treated Staphylococcus aureus ATCC 6538 assessed as inhibition of bacterial growth measured after 24 hrs; type: functional
Streptococcus pyogenes = assay: Potency index, ratio of ciprofloxacin MIC to test compound MIC for antibacterial activity against Streptococcus pyogenes ATCC 19615 assessed as inhibition of bacterial growth incubated for 24 hrs; type: functional
Pseudomonas aeruginosa [3] = assay: Potency index, ratio of norfloxacin MIC to test compound MIC for antibacterial activity against Pseudomonas aeruginosa clinical isolate assessed as inhibition of bacterial growth incubated for 24 hrs; type: functional
[4] = Hemolytic activity in human Red blood cells at 256 ug/ml measured after 1.5 hrs by absorbance based assay relative to control; type: toxicity, cell-based, Erythrocyte; settings: red blood cells (erythrocytes), at 256 µg/mL, read-out: Activity
Staphylococcus aureus [5] = assay: Potency index, ratio of norfloxacin MIC to test compound MIC for antibacterial activity against Staphylococcus aureus clinical isolate assessed as inhibition of bacterial growth incubated for 24 hrs; type: functional
Staphylococcus aureus [6] = assay: Antibacterial activity against Staphylococcus aureus ATCC 12600 assessed as inhibition of bacterial growth incubated for 24 hrs; type: functional
Staphylococcus aureus [7] = assay: Induction of morphological changes in methicillin resistant Staphylococcus aureus assessed as appearance of concaved bacterial surface at 2 ug/ml incubated for 3 hrs by SEM analysis; type: functional, organism-based; settings: dose 2.0 µg/ml
Pseudomonas aeruginosa [8] = assay: Antibacterial activity against Pseudomonas aeruginosa clinical isolate assessed as inhibition of bacterial growth incubated for 24 hrs; type: functional
HUVEC = assay: Cytotoxicity against HUVEC cells assessed as reduction in cell viability at 0.78 to 25 ug/ml measured after 24 hrs by MTT assay; type: toxicity, cell-based; settings: human, dose 0.78-25 µg/ml
Staphylococcus aureus [9] = assay: Antibacterial activity against methicillin resistant Staphylococcus aureus assessed as reduction in metabolic activity by measuring reduction in fluorescence intensity at 0.5 to 2 times MIC incubated for 6 hrs by alamar blue assay; type: functional, organism-based
Staphylococcus aureus [10] = assay: Potency index, ratio of ciprofloxacin MIC to test compound MIC for antibacterial activity against Staphylococcus aureus clinical isolate assessed as inhibition of bacterial growth incubated for 24 hrs; type: functional
Staphylococcus aureus [11] = assay: Potency index, ratio of clinafloxacin MIC to test compound MIC for antibacterial activity against Staphylococcus aureus clinical isolate assessed as inhibition of bacterial growth incubated for 24 hrs; type: functional
Erythrocyte = assay: Hemolytic activity in human Red blood cells assessed as concentration required for 5% hemolysis measured after 1.5 hrs by absorbance based assay; type: toxicity, cell-based
Escherichia coli = assay: Antibacterial activity against Escherichia coli ATCC 25922 assessed as inhibition of bacterial growth incubated for 24 hrs; type: functional
Enterococcus faecalis [12] = assay: Antibacterial activity against Enterococcus faecalis clinical isolate assessed as inhibition of bacterial growth incubated for 24 hrs; type: functional
Enterococcus faecalis [13] = assay: Antibacterial activity against vancomycin-resistant Enterococcus faecalis clinical isolate p1-2007225053 assessed as inhibition of bacterial growth incubated for 24 hrs; type: functional
Pseudomonas aeruginosa [14] = assay: Induction of morphological changes in Pseudomonas aeruginosa assessed as appearance of concaved bacterial surface at 2 ug/ml incubated for 3 hrs by SEM analysis; type: functional, organism-based; settings: dose 2.0 µg/ml
Pseudomonas aeruginosa [15] = assay: Resistance development in Pseudomonas aeruginosa assessed as increase in MIC measured after 20 days; type: functional, organism-based; settings: time 20.0 day
Staphylococcus aureus [16] = assay: Antibacterial activity against Staphylococcus aureus clinical isolate assessed as inhibition of bacterial growth incubated for 24 hrs; type: functional

Compound: N#CCc1cc2c(cc1F)c(=O)c(C(=O)O)cn2C1CC1
- Activity (Staphylococcus aureus [1]): Dose-Dependent Effect
- MIC (Staphylococcus aureus [2]): 8 µg/mL (≈ 27.9 µM)
- Ratio (Streptococcus pyogenes): 64
- Ratio (Pseudomonas aeruginosa [3]): 32
- hemolysis at 1.5 h, 256 ug/ml [4]: < 1%
- Ratio (Staphylococcus aureus [5]): 32
- MIC (Staphylococcus aureus [6]): 1 µg/mL (≈ 3.49 µM)
- Activity (Staphylococcus aureus [7]): Active
- MIC (Pseudomonas aeruginosa [8]): 0.25 µg/mL (≈ 0.873 µM)
- Activity (HUVEC): Non-Toxic
- Activity (Staphylococcus aureus [9]): Active
- Ratio (Staphylococcus aureus [10]): 8
- Ratio (Staphylococcus aureus [11]): 2
- HC5 (Erythrocyte): > 10000 µg/mL
- MIC (Escherichia coli): 0.5 µg/mL (≈ 1.75 µM)
- MIC (Enterococcus faecalis [12]): 4 µg/mL (≈ 14 µM)
- MIC (Enterococcus faecalis [13]): 0.125 µg/mL (≈ 0.437 µM)
- Activity (Pseudomonas aeruginosa [14]): Active
- Activity (Pseudomonas aeruginosa [15]): inactive
- MIC (Staphylococcus aureus [16]): 0.25 µg/mL (≈ 0.873 µM)
